According to patent publication US8962830B2, “Protein kinase inhibitors and methods of treatment” (The Walter and Eliza Hall Institute of Medical Research, priority 2010, dated 2015):
Like-named read-outs stand apart in the source and are kept apart here.

Experiments:
[1] = molecular target: T1, Src recombinant enzyme, N-terminally His6 tagged full-length human protein (Homo sapiens, UniProt P12931); experiment: SRC kinase inhibition assay (AlphaScreen); type: biochemical; conditions: 80 μM ATP, 90 minutes at 30 degree Celsius
T1 construct: Src recombinant enzyme was purchased as N-terminally His6 tagged full-length human protein; His6 (N); purchased
Procedure: Protocol for SRC Kinase Inhibition Assay. Compounds of the invention were tested for in vitro activity in the following assay: A biotin labeled peptide was used as substrate (amino acid sequence: Biotin-[…]). Src recombinant enzyme was purchased as N-terminally His6 tagged full-length human protein. The 15 μL assay reactions were run in Greiner brand white 384-well low volume plates. […] Compounds were added in a volume of 100 nL from dilution series made up in DMSO, positive and negative control reactions receiving the same volume DMSO without compounds. The plates were sealed with adhesive seals and incubated for 90 minutes at 30 degree Celsius. The reactions were stopped with the detection reagents added at the same time. Product formation was quantified as photochemiluminescence between PerkinElmer AlphaScreenTM beads, using Streptavidin-coated donor and anti-phosphotyrosine (P-[…]) acceptor beads. […] Plates were incubated for 5 hours before being read on a PerkinElmer EnVisionTM plate reader in HTS AlphascreenTM mode. IC50 values were obtained by calculating percent inhibition (% I) for each reaction relative to controls on the same plate (% [SMILES] where CN/CP are the averages of the negative/positive reactions, respectively), then fitting the % I data vs. compound concentration [I] to % I=([…])))) where A is the lower asymptote, B is the upper asymptote, C is the IC50 value, and D is the slope factor.

LIM1215 = experiment: Cellular activity, MTT cell growth assay, LIM1215; type: cell-based; conditions: LIM1215, 96 h, read-out: LIM1215 (cellular data)
Procedure: (§1) A. Cells, Inhibitors and Incubation
(§2) 1. Cell Lines • LIM 1899 colon carcinoma derived epithelial cells were grown in RPMI+Adds^1+10% FCS. ^1 Additives for culture of LIM cell lines: 10 μM thioglycerol, 0.025 U/mL insulin, 1 μg/mL hydrocortisone
(§3) 2. Cell Plating in 96 Well Plate. • Assay medium: RPMI+Adds+5% FCS • Cells are trypsinized, washed once in assay medium and brought to the required concentration as described below: • Need 10^4 cells per well in 100 μL per well=10^5 per mL for plating • After washing, cells were resuspended in 5 mL and counted (1×T75 flask gives approx 2−3×10 eg^6 per mL). • Cells were then diluted to 10^5 cells/mL (need 10 mL minimum per plate). • Eg. Cell count in 5 mL is 25×10^5/mL • For 10^5/mL, dilute 1 mL to 25 mL • 100 μL per well cells were plated with multistepper pipette, over the whole plate. Plates were incubated overnight at 37° C.+5% CO2 incubator.
(§4) 3. Inhibitor Stocks • Inhibitors were dissolved in DMSO for 10 mM stocks. MW and amount of compound given was used to calculate the volume required for each. • 4× the highest concentration of the compound in the assay was calculated to prepare the working stocks. • eg 1st well final concentration in assay was 10 μM. • Therefore working stock was 40 μM • Stock solution is 10 mM→40 μM=4 μl in 1.0 mL assay medium for working stock.
(§5) 4. Plate Plan: • Rows A,B: Inhibitor 1 • Rows C,D: Inhibitor 2 • Rows E,F: Inhibitor 3 • Row G: RPMI+Adds+5% FCS (=maximum growth) • Row H: RPMI+Adds serum free (=minimum growth)
(§6) 5. Titration of Inhibitors • A 96 well plate was used to titrate the inhibitors for each assay plate: • 150 μL assay medium was added to each well of a 96 well plate. • 150 μL of Inhibitor 1 working stock was added wells A1 and B1. • Repeated with Inhibitor 2 to C1 and D1 • Repeated with Inhibitor 3 to E1 and F1 • Serial ½ dilutions were performed across the plate, rows A to F, left to right with 150 μL.
(§7) 6. Transfer Titrated Inhibitors to Cell Assay Plate: Final Volume 200 μl • Using a multichannel pipette, 100 μL was transferred from the corresponding wells of the titration plate to the cell assay plate, rows A to G. • Row H: medium was carefully removed from the cell wells with a 200 μL tip, and replaced with 200 μL serum free medium.
(§8) 7. Incubation • Plates were incubated for 4 days at 37° C. with 5% CO2.
(§9) B. Use of MTT to Measure Cell Growth
(§10) 1. MTT Preparation and Storage • MTT Sigma M-2128 5 g • Dissolved in PBS, at 5 mg/mL • 5 g bottle dissolved in 1 liter PBS (some impurities remain) • Filter sterilized and aliquoted in 50 mL tubes, stored at −20° C. • As needed, 50 mL tube was thawed and aliquoted in 5 mL tubes, re-stored at −20° C. • Stable at 4° C. for 1 month (unstable if left at 37° C. too long while thawing)
(§11) 2. MTT Solvent • a. 1M HCl: • Mixed 44.6 mL conc HCl (11.2M) in 500 mL DDW • b. Acidified isopropanol (Isopropanol with 0.04 N HCl): • Mixed 20 mL 1M HCl with 480 mL isopropanol (Propan-2-ol, iso-Propyl Alcohol)
(§12) 3. MTT Assay • After cell incubation (above): • Added 10 μL MTT to each well. • Incubated 4 hrs in 37° C. incubator. • Spun plates, 5 min, 1500 rpm. • Carefully flicked out medium into the sink, without disturbing the crystals. • Added 200 μL acidified isopropanol per well. • Placed on plate shaker, RT, speed 6.5, for 10 min-30 min. • Read OD of plates on Thermo Multiskan Ex, at 560/690 nm.
(§13) • Mosmann, T. • Rapid colorimetric assay for cellular growth and survival: application to proliferation and cytotoxic assays. Journal of Immunological Methods (1983), 65:55-63. Table with Examples of Cellular Data
(§14) The compounds in this invention display cellular activities against a range of tumour or transformed cell lines in particular colon cancer cell lines such as LIM1215, LIM2537 and LIM1899.

RasNIH3T3 = experiment: Cellular activity, MTT cell growth assay, RasNIH3T3; type: cell-based; conditions: 96 h, read-out: RasNIH3T3 (cellular data)
[2] = system: LIM 1899 colon carcinoma derived epithelial cells; experiment: Cellular activity, MTT cell growth assay, LIM1899; type: cell-based; conditions: 96 h, 4 days incubation
Procedure: as §1, §2, §3, §4, §5, §6, §7, §8, §9, §10, §11, §12, §13, §14

LIM2537 = experiment: Cellular activity, MTT cell growth assay, LIM2537; type: cell-based; conditions: 96 h, 4 days incubation
Procedure: as §1, §2, §3, §4, §5, §6, §7, §8, §9, §10, §11, §12, §13, §14

Solubility = type: physicochemical
[3] = system: SFKs (Src family kinases); conditions: reported; no discrimination between family members; cited from earlier work

T1 sequence (P12931 whole entry): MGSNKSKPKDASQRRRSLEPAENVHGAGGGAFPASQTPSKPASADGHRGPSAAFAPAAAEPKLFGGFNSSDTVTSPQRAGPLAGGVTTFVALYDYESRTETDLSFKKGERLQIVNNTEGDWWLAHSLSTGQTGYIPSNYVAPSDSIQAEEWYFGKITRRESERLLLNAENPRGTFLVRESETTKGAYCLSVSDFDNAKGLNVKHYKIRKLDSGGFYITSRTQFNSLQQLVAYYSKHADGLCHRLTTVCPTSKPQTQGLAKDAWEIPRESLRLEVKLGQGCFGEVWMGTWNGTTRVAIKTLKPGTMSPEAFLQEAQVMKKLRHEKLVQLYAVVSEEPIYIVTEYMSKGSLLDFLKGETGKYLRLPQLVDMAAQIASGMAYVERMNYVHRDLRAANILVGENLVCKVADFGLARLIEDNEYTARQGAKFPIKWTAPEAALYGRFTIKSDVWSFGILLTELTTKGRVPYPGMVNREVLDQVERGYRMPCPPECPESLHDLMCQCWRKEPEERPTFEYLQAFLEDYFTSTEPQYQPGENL

Cc1ccc(-c2nn(C(C)(C)CNC(=O)c3cc(C)ccn3)c3ncnc(N)c23)cc1 [Example 65]
IC50 [1]: 0.1 to 1 µM | IC50 (LIM1215; MTT, 4 days incubation): 0.96 µM | IC50 (RasNIH3T3; MTT, 4 days incubation): 1.67 µM | IC50 [2]: 0.9 µM

Cc1ccc(-c2nn(C(C)(C)CNC(=O)c3ccccn3)c3ncnc(N)c23)cc1 [Example 12]
IC50 [1]: 0.001 to 0.1 µM | IC50 (LIM1215; MTT, 4 days incubation): 0.17 µM | IC50 (LIM2537): 0.17 µM | IC50 (RasNIH3T3; MTT, 4 days incubation): 0.11 µM | IC50 [2]: 0.17 µM

Cc1ccc(-c2nn(C(C)(C)CNC(=N)c3ccccc3)c3ncnc(N)c23)cc1 [Example 76]
IC50 [1]: 1 to 10 µM | IC50 (LIM2537): > 10 µM | IC50 [2]: 19 µM

Cc1ccc(-c2nn(C(C)(C)CNC(=O)c3cc(Br)ccn3)c3ncnc(N)c23)cc1 [Example 42]
IC50 [1]: 0.001 to 0.1 µM | IC50 (LIM1215; MTT, 4 days incubation): 0.9 µM | IC50 (RasNIH3T3; MTT, 4 days incubation): 1.9 µM

CC(C)(C)n1nc(-c2ccc(Cl)cc2)c2c(N)ncnc21 [PP2]
solubility (Solubility): poorly soluble | inhibition of SFKs [3]: potent inhibitors

Cc1ccc(-c2nn(C(C)(C)CNC(=O)c3cscn3)c3ncnc(N)c23)cc1 [Example 64]
IC50 [1]: 0.001 to 0.1 µM | IC50 (LIM2537): 1.1 µM | IC50 (RasNIH3T3; MTT, 4 days incubation): 0.63 µM | IC50 [2]: 0.88 µM

Cc1ccc(-c2nn(C(C)(C)CNC(=O)c3cc(-c4ccccc4)ccn3)c3ncnc(N)c23)cc1 [Example 66]
IC50 [1]: 0.001 to 0.1 µM | IC50 (LIM1215; MTT, 4 days incubation): 0.52 µM | IC50 (RasNIH3T3; MTT, 4 days incubation): 0.5 µM | IC50 [2]: 0.31 µM

Cc1ccc(-c2nn(C(C)(C)CNC(=O)c3ccccc3)c3ncnc(N)c23)cc1 [Example 11]
IC50 [1]: 0.1 to 1 µM | IC50 [2]: 1.7 µM

Cc1ccc(-c2nn(C(C)(C)CNC(=O)c3ncccc3C)c3ncnc(N)c23)cc1 [Example 71]
IC50 [1]: > 10 µM | IC50 [2]: 3.1 µM

Cc1ccc(-c2nn(C(C)(C)CNC(=N)c3ccccn3)c3ncnc(N)c23)cc1 [Example 77]
IC50 [1]: 0.001 to 0.1 µM | IC50 (LIM2537): > 10 µM

Cc1ccc(-c2nn(C(C)(C)CNS(=O)(=O)c3ccccc3)c3ncnc(N)c23)cc1 [Example 59]
IC50 [1]: 0.1 to 1 µM | IC50 (LIM1215; MTT, 4 days incubation): 3.1 µM | IC50 (RasNIH3T3; MTT, 4 days incubation): > 20 µM

Cc1ccc(-c2nn(C(C)(C)CNC(=O)c3cccc(C)n3)c3ncnc(N)c23)cc1 [Example 73]
IC50 [1]: 1 to 10 µM | IC50 [2]: 1.1 µM

Cc1ccc(-c2nn(C(C)(C)CNC(=O)c3cnccn3)c3ncnc(N)c23)cc1 [Example 56]
IC50 [1]: 0.001 to 0.1 µM | IC50 (LIM1215; MTT, 4 days incubation): 0.4 µM | IC50 (RasNIH3T3; MTT, 4 days incubation): 1.62 µM

Cc1ccc(-c2nn(C(C)(C)CNC(=O)c3cc(Cl)ccn3)c3ncnc(N)c23)cc1 [Example 63]
IC50 [1]: 0.1 to 1 µM | IC50 (LIM1215; MTT, 4 days incubation): 2.6 µM | IC50 (RasNIH3T3; MTT, 4 days incubation): 6.29 µM | IC50 [2]: 1.7 µM

CC(C)(CNC(=O)c1ccccn1)n1nc(-c2ccc(Cl)cc2)c2c(N)ncnc21 [Example 75]
IC50 [1]: 0.001 to 0.1 µM | IC50 (LIM2537): 1.6 µM | IC50 [2]: 0.9 µM

CC(C)(CNC(=O)c1ccccc1)n1nc(-c2ccc(Cl)cc2)c2c(N)ncnc21 [74 (compound 74F)]
IC50 (LIM2537): > 10 µM | IC50 [2]: > 20 µM

COc1ccnc(C(=O)NCC(C)(C)n2nc(-c3ccc(C)cc3)c3c(N)ncnc32)c1 [Example 61]
IC50 [1]: 0.001 to 0.1 µM | IC50 (LIM1215; MTT, 4 days incubation): 0.8 µM | IC50 (RasNIH3T3; MTT, 4 days incubation): 1.83 µM | IC50 [2]: 1.6 µM

Cc1ccc(-c2nn(C(C)(C)CNC(=O)c3cncnc3)c3ncnc(N)c23)cc1 [Example 57]
IC50 [1]: 1 to 10 µM | IC50 (LIM1215; MTT, 4 days incubation): 1.6 µM | IC50 (RasNIH3T3; MTT, 4 days incubation): > 20 µM

Cc1ccc(-c2nn(C(C)(C)CNC(=O)c3ccncn3)c3ncnc(N)c23)cc1 [Example 62]
IC50 [1]: 0.001 to 0.1 µM | IC50 (LIM1215; MTT, 4 days incubation): 0.25 µM | IC50 (RasNIH3T3; MTT, 4 days incubation): 0.35 µM

Cc1ccc(-c2nn(C(C)(C)CNC(=O)c3cccnc3)c3ncnc(N)c23)cc1 [Example 60]
IC50 [1]: 0.1 to 1 µM | IC50 (LIM1215; MTT, 4 days incubation): 1.9 µM | IC50 (RasNIH3T3; MTT, 4 days incubation): 17 µM

Cc1nc(Nc2ncc(C(=O)Nc3c(C)cccc3Cl)s2)cc(N2CCN(CCO)CC2)n1 [Dasatinib, reference compound]
IC50 (LIM1215; MTT, 4 days incubation): 2 µM | IC50 (RasNIH3T3; MTT, 4 days incubation): 9 to 12 µM | IC50 [2]: 1.2 µM

Cc1ccc(-c2nn(C(C)(C)C)c3ncnc(N)c23)cc1 [PP1, reference compound]
IC50 (LIM1215): 0.25 µM | IC50 (RasNIH3T3): 9.25 µM | solubility (Solubility): poorly soluble | inhibition of SFKs [3]: potent inhibitors
